# Measurements published in ChEMBL document CHEMBL1201862, “PubChem BioAssay data set” (2004).
#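 Exposure lasted 48 hours, with cells grown in 96-well plates and compounds tested at five concentrations. GI50 is the concentration that inhibits growth by half.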 Activity calls are given as the source filed them. Cut-off read from the data, not from the text of the source: active = GI50 up to about 1.1 µM and inactive = higher.
# Legend:
# Experiment in all cases: DTP human tumour cell line panel, 48 h
# 786-0 = test system: 786-0
# A498 = test system: A498
# A549 = test system: A549
# ACHN = test system: ACHN
# CAKI-1 = test system: CAKI-1
# CCRF-CEM = test system: CCRF-CEM
# COLO 205 = test system: COLO 205
# DLD-1 = test system: DLD-1
# DMS-114 = test system: DMS-114
# DMS-273 = test system: DMS-273
# EKVX = test system: EKVX
# HCC 2998 = test system: HCC 2998
# HCT-116 = test system: HCT-116
# HCT-15 = test system: HCT-15
# HL-60 = test system: HL-60
# HOP-18 = test system: HOP-18
# HOP-62 = test system: HOP-62
# HOP-92 = test system: HOP-92
# HT-29 = test system: HT-29
# IGROV-1 = test system: IGROV-1
# K562 = test system: K562
# KM-20L2 = test system: KM-20L2
# KM12 = test system: KM12
# LOX IMVI = test system: LOX IMVI
# LXFL 529 = test system: LXFL 529
# M14 = test system: M14
# M19-MEL = test system: M19-MEL
# MOLT-4 = test system: MOLT-4
# Malme-3M = test system: Malme-3M
# NCI-H226 = test system: NCI-H226
# NCI-H23 = test system: NCI-H23
# NCI-H460 = test system: NCI-H460
# NCI-H522 = test system: NCI-H522
# OVCAR-3 = test system: OVCAR-3
# OVCAR-4 = test system: OVCAR-4
# OVCAR-5 = test system: OVCAR-5
# OVCAR-8 = test system: OVCAR-8
# RPMI-8226 = test system: RPMI-8226
# RXF 393 = test system: RXF 393
# RXF 631 = test system: RXF 631
# SF-268 = test system: SF-268
# SF-295 = test system: SF-295
# SF-539 = test system: SF-539
# SK-MEL-28 = test system: SK-MEL-28
# SK-MEL-2 = test system: SK-MEL-2
# SK-MEL-5 = test system: SK-MEL-5
# SK-OV-3 = test system: SK-OV-3
# SN12C = test system: SN12C
# SNB-19 = test system: SNB-19
# SNB-75 = test system: SNB-75
# SNB-78 = test system: SNB-78
# SR = test system: SR
# SW-620 = test system: SW-620
# TK-10 = test system: TK-10
# U-251 = test system: U-251
# UACC-257 = test system: UACC-257
# UACC-62 = test system: UACC-62
# UO-31 = test system: UO-31
# XF498 = test system: XF498
compound,measurement,setting,value
O=C(/C=C\c1ccccc1O)c1ccc(O)cc1O,GI50,786-0,> 100 µM (inactive)
same,GI50,A498,> 100 µM (inactive)
same,GI50,A549,> 100 µM (inactive)
same,GI50,ACHN,> 100 µM (inactive)
same,GI50,CAKI-1,> 100 µM (inactive)
same,GI50,CCRF-CEM,87.7 µM (inactive)
same,GI50,COLO 205,28.6 µM (inactive)
same,GI50,DLD-1,> 100 µM (inactive)
same,GI50,DMS-114,> 100 µM (inactive)
same,GI50,DMS-273,> 100 µM (inactive)
same,GI50,EKVX,> 100 µM (inactive)
same,GI50,HCC 2998,> 100 µM (inactive)
same,GI50,HCT-116,> 100 µM (inactive)
same,GI50,HCT-15,> 100 µM
same,GI50,HL-60,81.8 µM (inactive)
same,GI50,HOP-18,55.7 µM (inactive)
same,GI50,HOP-62,> 100 µM (inactive)
same,GI50,HOP-92,> 100 µM (inactive)
same,GI50,HT-29,> 100 µM (inactive)
same,GI50,IGROV-1,> 100 µM (inactive)
same,GI50,K562,> 100 µM (inactive)
same,GI50,KM-20L2,> 100 µM (inactive)
same,GI50,KM12,> 100 µM (inactive)
same,GI50,LOX IMVI,> 100 µM (inactive)
same,GI50,LXFL 529,> 100 µM (inactive)
same,GI50,M14,> 100 µM (inactive)
same,GI50,M19-MEL,> 100 µM (inactive)
same,GI50,MOLT-4,> 100 µM (inactive)
same,GI50,Malme-3M,> 100 µM (inactive)
same,GI50,NCI-H226,> 100 µM (inactive)
same,GI50,NCI-H23,> 100 µM (inactive)
same,GI50,NCI-H460,> 100 µM (inactive)
same,GI50,NCI-H522,> 100 µM (inactive)
same,GI50,OVCAR-3,> 100 µM (inactive)
same,GI50,OVCAR-4,54.6 µM (inactive)
same,GI50,OVCAR-5,> 100 µM (inactive)
same,GI50,OVCAR-8,> 100 µM (inactive)
same,GI50,RPMI-8226,62.8 µM (inactive)
same,GI50,RXF 393,> 100 µM (inactive)
same,GI50,RXF 631,> 100 µM (inactive)
same,GI50,SF-268,> 100 µM (inactive)
same,GI50,SF-295,> 100 µM (inactive)
same,GI50,SF-539,> 100 µM (inactive)
same,GI50,SK-MEL-28,> 100 µM (inactive)
same,GI50,SK-MEL-2,> 100 µM (inactive)
same,GI50,SK-MEL-5,> 100 µM (inactive)
same,GI50,SK-OV-3,> 100 µM (inactive)
same,GI50,SN12C,> 100 µM (inactive)
same,GI50,SNB-19,> 100 µM (inactive)
same,GI50,SNB-75,0.0128 µM (active)
same,GI50,SNB-78,> 100 µM (inactive)
same,GI50,SR,> 100 µM (inactive)
same,GI50,SW-620,10.8 µM (inactive)
same,GI50,TK-10,> 100 µM (inactive)
same,GI50,U-251,> 100 µM (inactive)
same,GI50,UACC-257,> 100 µM (inactive)
same,GI50,UACC-62,> 100 µM (inactive)
same,GI50,UO-31,> 100 µM (inactive)
Cc1cc(C)nc(NS(=O)(=O)c2ccc(Nc3c4ccccc4nc4c(C(=O)NCCN(C)C)cccc34)cc2)n1,GI50,786-0,11.6 µM (inactive)
same,GI50,A549,3.13 µM (inactive)
same,GI50,ACHN,3.49 µM (inactive)
same,GI50,CCRF-CEM,1.26 µM (inactive)
same,GI50,COLO 205,1.86 µM (inactive)
same,GI50,DLD-1,5.15 µM (inactive)
same,GI50,DMS-114,1.04 µM (active)
same,GI50,DMS-273,0.813 µM (active)
same,GI50,EKVX,10.5 µM (inactive)
same,GI50,HCT-116,1.53 µM (inactive)
same,GI50,HCT-15,5.66 µM
same,GI50,HL-60,1.49 µM (inactive)
same,GI50,HOP-62,2.52 µM (inactive)
same,GI50,HT-29,1.14 µM (inactive)
same,GI50,IGROV-1,2.83 µM (inactive)
same,GI50,K562,2.08 µM (inactive)
same,GI50,KM-20L2,6.61 µM (inactive)
same,GI50,KM12,3.43 µM (inactive)
same,GI50,LOX IMVI,1.74 µM (inactive)
same,GI50,LXFL 529,4.25 µM (inactive)
same,GI50,M14,6.5 µM (inactive)
same,GI50,M19-MEL,3.44 µM (inactive)
same,GI50,MOLT-4,0.277 µM (active)
same,GI50,NCI-H226,2.17 µM (inactive)
same,GI50,NCI-H23,4.26 µM (inactive)
same,GI50,NCI-H460,0.771 µM (active)
same,GI50,NCI-H522,0.566 µM (active)
same,GI50,OVCAR-4,3.04 µM (inactive)
same,GI50,OVCAR-5,12.8 µM (inactive)
same,GI50,OVCAR-8,0.675 µM (active)
same,GI50,RXF 393,6.32 µM (inactive)
same,GI50,RXF 631,0.986 µM (active)
same,GI50,SF-268,2.57 µM (inactive)
same,GI50,SF-295,1.91 µM (inactive)
same,GI50,SF-539,2.85 µM (inactive)
same,GI50,SK-MEL-28,5.97 µM (inactive)
same,GI50,SK-MEL-2,4.89 µM (inactive)
same,GI50,SK-MEL-5,5.75 µM (inactive)
same,GI50,SN12C,2.79 µM (inactive)
same,GI50,SNB-19,1.85 µM (inactive)
same,GI50,SNB-75,10.7 µM (inactive)
same,GI50,SNB-78,11.5 µM (inactive)
same,GI50,SR,0.302 µM (active)
same,GI50,SW-620,0.764 µM (active)
same,GI50,TK-10,10.6 µM (inactive)
same,GI50,U-251,3.72 µM (inactive)
same,GI50,UACC-62,3.55 µM (inactive)
same,GI50,UO-31,1.49 µM (inactive)
same,GI50,XF498,13.7 µM (inactive)
CCCNCCCCC(NC(C)=O)C(=O)NCc1ccccc1 (stereo not drawn),GI50,786-0,> 100 µM (inactive)
same,GI50,A498,> 100 µM (inactive)
same,GI50,A549,> 100 µM (inactive)
same,GI50,ACHN,> 100 µM (inactive)
same,GI50,CAKI-1,> 100 µM (inactive)
same,GI50,CCRF-CEM,> 100 µM (inactive)
same,GI50,COLO 205,> 100 µM (inactive)
same,GI50,DLD-1,> 100 µM (inactive)
same,GI50,DMS-114,> 100 µM (inactive)
same,GI50,DMS-273,> 100 µM (inactive)
same,GI50,EKVX,> 100 µM (inactive)
same,GI50,HCC 2998,> 100 µM (inactive)
same,GI50,HCT-116,> 100 µM (inactive)
same,GI50,HCT-15,> 100 µM
same,GI50,HOP-62,> 100 µM (inactive)
same,GI50,HOP-92,> 100 µM (inactive)
same,GI50,HT-29,> 100 µM (inactive)
same,GI50,IGROV-1,> 100 µM (inactive)
same,GI50,K562,> 100 µM (inactive)
same,GI50,KM-20L2,> 100 µM (inactive)
same,GI50,KM12,> 100 µM (inactive)
same,GI50,LOX IMVI,> 100 µM (inactive)
same,GI50,LXFL 529,> 100 µM (inactive)
same,GI50,M14,> 100 µM (inactive)
same,GI50,M19-MEL,> 100 µM (inactive)
same,GI50,MOLT-4,> 100 µM (inactive)
same,GI50,Malme-3M,> 100 µM (inactive)
same,GI50,NCI-H226,> 100 µM (inactive)
same,GI50,NCI-H23,> 100 µM (inactive)
same,GI50,NCI-H460,> 100 µM (inactive)
same,GI50,NCI-H522,> 100 µM (inactive)
same,GI50,OVCAR-3,> 100 µM (inactive)
same,GI50,OVCAR-4,> 100 µM (inactive)
same,GI50,OVCAR-5,> 100 µM (inactive)
same,GI50,OVCAR-8,> 100 µM (inactive)
same,GI50,RPMI-8226,> 100 µM (inactive)
same,GI50,RXF 393,> 100 µM (inactive)
same,GI50,RXF 631,> 100 µM (inactive)
same,GI50,SF-268,> 100 µM (inactive)
same,GI50,SF-295,> 100 µM (inactive)
same,GI50,SF-539,> 100 µM (inactive)
same,GI50,SK-MEL-28,> 100 µM (inactive)
same,GI50,SK-MEL-2,> 100 µM (inactive)
same,GI50,SK-MEL-5,> 100 µM (inactive)
same,GI50,SK-OV-3,> 100 µM (inactive)
same,GI50,SN12C,> 100 µM (inactive)
same,GI50,SNB-19,> 100 µM (inactive)
same,GI50,SNB-75,25.2 µM (inactive)
same,GI50,SNB-78,> 100 µM (inactive)
same,GI50,SW-620,> 100 µM (inactive)
same,GI50,TK-10,> 100 µM (inactive)
same,GI50,U-251,> 100 µM (inactive)
same,GI50,UACC-257,> 100 µM (inactive)
same,GI50,UACC-62,> 100 µM (inactive)
same,GI50,UO-31,> 100 µM (inactive)
same,GI50,XF498,> 100 µM (inactive)
